Measured values: PMC4009859, “Novel Cold-Adapted Esterase MHlip from an Antarctic Soil Metagenome” (Biology, 2013)

Biological target: T1, MHlip (uncultured bacterium, UniProt D3YKV3)
T1 construct: full length, 262 residues, 28,075 Da (theoretical), C-terminal 6xHis tag (pET22b NdeI/XhoI), E. coli BL21(DE3), Ni-NTA; N-terminus MPFAH
Test: spectrophotometric p-nitrophenol release at […] nm, initial rates, nonlinear Michaelis-Menten fit
Assay type: biochemical
Conditions: 20 mM Tris-HCl pH 8, 30 °C, pNPA 0-10 mM

T1 sequence (D3YKV3 1-262 limits assumed): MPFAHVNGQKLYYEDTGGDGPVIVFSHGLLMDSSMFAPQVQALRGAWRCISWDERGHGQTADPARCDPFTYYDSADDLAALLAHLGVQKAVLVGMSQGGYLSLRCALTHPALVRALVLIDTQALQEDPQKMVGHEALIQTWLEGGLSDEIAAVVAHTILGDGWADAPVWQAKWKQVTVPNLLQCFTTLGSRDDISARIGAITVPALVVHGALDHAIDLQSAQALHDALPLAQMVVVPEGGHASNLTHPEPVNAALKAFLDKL

Km: 1.2~0.1 mM
Structure (SMILES): CC(=O)Oc1ccc([N+](=O)[O-])cc1 [pNPA]
